Results taken from patent US10391095B2, “DNA-PK inhibitors” (Vertex Pharmaceuticals Incorporated, priority 2012, dated 2019).
pKi: −log10 of the molar value.

The compounds below were run against DNA-PK (Homo sapiens, UniProt P78527) (assay: DNA-PK inhibition assay (radiometric, 33P-ATP)). Details: 100 μM ATP, competitive tight-binding fit.
Type: biochemical
In short: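 33P transfer from 100 µM ATP to a DNA-PK peptide (0.8 mg/mL) is measured after 45 min, using about 6 nM enzyme activated by 10 µg/mL sheared dsDNA (HEPES pH 7.5, MgCl2, DTT). Filter-bound counts fitted to a competitive tight-binding inhibition model give Ki.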

| pKi | SMILES |
| --- | --- |
| > 7.52 | CNC(=O)c1ccnc2c([C@H](C)CNc3cc(-n4ccnc4)ncn3)cccc12 [Compound 743] |
| > 7.52 | CNC(=O)c1ccnc2c([C@H](C)CNc3cc(-c4cnc5c(c4)COC5)ncn3)ccc(F)c12 [Compound 967] |
| > 7.52 | CCOc1ccccc1CCNc1cc(-c2ccc(N3CC[C@@H](O)C3)nc2)ncn1 [Compound 99] |
| > 7.52 | CNC(=O)c1ccnc2c([C@H](C)CNc3cc(-c4cnc(OC5CCCN(C(=O)OC(C)(C)C)C5)nc4)ncn3)cccc12 (stereo partly shown) [Compound 747] |
| > 7.52 | CNC(=O)c1ccnc2c([C@H](C)CNc3cc(-c4cnc(CN(C)C)nc4)ncn3)cccc12 [Compound 885] |
| > 7.52 | CNC(=O)c1ccnc2c([C@H](C)CNc3cc(-c4cnc(C(F)(F)F)nc4)ncn3)cccc12 [Compound 957] |
| > 7.52 | Cc1ccc(-c2cc(NC[C@@H](C)c3cccc4c3OCC4)ncn2)cn1 [Compound 134] |
| > 7.52 | CNC(=O)c1ccnc2c([C@H](C)CNc3cc(-c4cnc(NC)nc4)ncn3)ccc(F)c12 [Compound 623] |
| > 7.52 | CNC(=O)c1ccc([C@H](C)CNc2cc(-c3ccc(C(C)=O)cc3)ncn2)c(OC)c1 [Compound 319] |
| > 7.52 | Cc1ccc(-c2cc(NC[C@@H](C)c3cccc4c3OCCN4)ncn2)cn1 [Compound 513] |
| > 7.52 | CC(CNc1cc(-c2cnc3c(cnn3CCO)c2)ncn1)c1cccc2nccnc12 (stereo not shown) [Compound 401] |
| > 7.52 | COc1ccccc1[C@H](C)CNc1cc(-c2ccc(N3CCN(C)CC3)nc2)ncn1 [Compound 32, (S)—N-(2-(2-Methoxyphenyl)propyl)-6-(6-(4-methylpiperazin-1-yl)pyridin-3-yl)pyrimidin-4-amine] |
| > 7.52 | COc1ccccc1CCNc1cc(-c2cnc3c(cnn3C(C)C)c2)ncn1 [Compound 44] |
| > 7.52 | CNC(=O)c1ccnc2c([C@H](C)CNc3cc(-c4cnc5c(cnn5CCO)c4)ncn3)cccc12 [Compound 580] |
| > 7.52 | CNC(=O)c1c(F)cnc2c([C@H](C)CNc3cc(-c4cnc5c(c4)OCCO5)ncn3)cccc12 [Compound 937] |
| > 7.52 | CNC(=O)c1ccnc2c([C@H](C)CNc3cc(-c4ccc(OC)nc4)ncn3)cccc12 [Compound 615] |
| > 7.52 | CNC(=O)c1ccnc2c([C@H](C)CNc3cc(-c4cnc(OC)c(N)c4)ncn3)ccc(F)c12 [Compound 910] |
| > 7.52 | C[C@H](CNc1cc(-c2ccc(NC3CC3)nc2)ncn1)c1ccnc2c1OCCO2 [Compound 465] |
| > 7.52 | CNC(=O)c1ccnc2c([C@H](C)CNc3cc(-c4ccc5ncccc5c4)ncn3)cccc12 [Compound 582] |
| > 7.52 | Cc1ccc(-c2cc(NCC(C)c3cccc4scnc34)ncn2)cn1 (stereo not shown) [Compound 333] |
| > 7.52 | COc1cc(F)c(F)cc1C(C)CNc1cc(-c2ccc(C)nc2)ncn1 (stereo not shown) [Compound 117] |
| > 7.52 | CNC(=O)c1ccnc2c([C@H](C)CNc3cc(-c4cncc(N5CCOCC5)c4)ncn3)ccc(F)c12 [Compound 915] |
| > 7.52 | Cc1ncc(-c2cc(NC[C@@H](C)c3cccc4c(C(F)F)c(F)cnc34)ncn2)cn1 [Compound 813] |
| > 7.52 | CC(CNc1cc(-c2cnc3c(cnn3CCO)c2)ncn1)c1ccc(F)cc1OC1CC1 (stereo not shown) [Compound 275] |
| > 7.52 | Cc1ccc(-c2cc(NCC(C)c3ccnc4cccnc34)ncn2)cn1 (stereo not shown) [Compound 331] |
| > 7.52 | COc1ccc(N)cc1C(C)CNc1cc(-c2ccc(C)nc2)ncn1 (stereo not shown) [Compound 290] |

| pKi | SMILES |
| --- | --- |
| > 7.52 | CCNC(=O)Cn1ncc2cc(-c3cc(NCC(C)c4ccc(C(=O)NC)cc4OC)ncn3)cnc21 (stereo not shown) [Compound 238] |
| > 7.52 | COCCn1ncc2cc(-c3cc(NCC(C)c4ccc(C(=O)NCC(F)(F)F)cc4OC)ncn3)cnc21 (stereo not shown) [Compound 220] |
| > 7.52 | COc1ccccc1[C@H](C)CNc1cc(-c2ccc(NCCO)nc2)ncn1 [Compound 118] |
| > 7.52 | CNC(=O)c1ccnc2c([C@H](C)CNc3cc(-c4cncc(C(C)(C)O)c4)ncn3)cccc12 [Compound 879] |
| > 7.52 | CNC(=O)c1ccnc2c([C@H](C)CNc3cc(-c4ccc(N5CCC6(COC6)C5)nc4)ncn3)cccc12 [Compound 735] |
| > 7.52 | CNC(=O)c1ccc(C(C)CNc2cc(-c3ccc(C)nc3)ncn2)c(OC)c1 (stereo not shown) [Compound 123] |
| > 7.52 | CNC(=O)c1ccnc2c([C@H](C)CNc3cc(-c4ccc([S+](C)[O-])cc4)ncn3)cccc12 (stereo partly shown) [Compound 677] |
| > 7.52 | Cc1ccc(-c2cc(NCC(C)c3ccccc3OCC3CC3)ncn2)cn1 (stereo not shown) [Compound 186] |
| > 7.52 | CNC(=O)c1ccnc2c([C@H](C)CNc3cc(-c4ccc(NCCn5cccc5)nc4)ncn3)cccc12 [Compound 702] |
| > 7.52 | CNc1ncc(-c2cc(NC[C@@H](C)c3ccnc4c3OCC4)ncn2)cn1 [Compound 430] |
| > 7.52 | CNC(=O)c1ccc([C@H](C)CNc2cc(-c3ccc(NCCCO)nc3)ncn2)c(OC)c1 [Compound 355] |
| > 7.52 | CCNc1ccc(-c2cc(NC[C@@H](C)c3cccc4c(C(=O)NC)ccnc34)ncn2)cn1 [Compound 581] |
| > 7.52 | CNC(=O)c1ccnc2c([C@H](C)CNc3cc(-c4ccc(C5(N)CC5)nc4)ncn3)ccc(F)c12 [Compound 940] |
| > 7.52 | CNC(=O)c1ccnc2c([C@H](C)CNc3cc(-c4cncc(C#N)c4)ncn3)cccc12 [Compound 868] |
| > 7.52 | Cc1ccc(-c2cc(NCC(C)c3ccc(F)cc3OC3CC3)ncn2)cn1 (stereo not shown) [Compound 270] |
| > 7.52 | CNC(=O)c1ccnc2c([C@H](C)CNc3cc(-c4ccc5c(c4)CN(C(C)=O)CC5)ncn3)cccc12 [Compound 804] |
| > 7.52 | COc1ccccc1CCNc1cc(-c2ccc(N3CCN(C(C)=O)CC3)nc2)ncn1 [Compound 16] |
| > 7.52 | CNC(=O)c1ccnc2c([C@H](C)CNc3cc(-c4ccc(NCCC(C)O)nc4)ncn3)cccc12 (stereo partly shown) [Compound 709] |
| > 7.52 | CCOc1ncc(-c2cc(NC[C@@H](C)c3cccc4c(C(=O)NC)ccnc34)ncn2)cn1 [Compound 607] |
| > 7.52 | Cc1ccc(-c2cc(NCC(C)c3cncc4cccnc34)ncn2)cn1 (stereo not shown) [Compound 414] |
| > 7.52 | C[C@H](CNc1cc(-c2cnc(N)c(Cl)c2)ncn1)c1ccnc2c1OCCO2 [Compound 553] |
| > 7.52 | CNC(=O)c1ccnc2c([C@H](C)CNc3cc(-c4cnc5c(c4)OCCO5)ncn3)cccc12 [Compound 935] |
| > 7.52 | Cc1ccc2cc(-c3cc(NC[C@@H](C)c4ccnc5c4OCCO5)ncn3)ccc2n1 [Compound 555] |
| > 7.52 | C[C@H](CNc1cc(-c2cnc3ccccc3c2)ncn1)c1ccnc2c1OCCO2 [Compound 559] |
| > 7.52 | CNC(=O)c1c(F)cnc2c([C@H](C)CNc3cc(-c4ccc(C)nc4)ncn3)cccc12 [Compound 620] |
| > 7.52 | CCNc1ccc(-c2cc(NC[C@@H](C)c3ccnc4cc(C)oc34)ncn2)cn1 [Compound 573] |

| pKi | SMILES |
| --- | --- |
| > 7.52 | CNC(=O)c1ccnc2c([C@H](C)CNc3cc(-c4ccc(C(=O)O)nc4)ncn3)cccc12 [Compound 673] |
| > 7.52 | CNC(=O)c1ccnc2c([C@H](C)CNc3cc(-c4ccc(C5CCC5)nc4)ncn3)cccc12 [Compound 845] |
| > 7.52 | COC(=O)c1ccc(OC)c(C(C)CNc2cc(-c3ccc(C)nc3)ncn2)c1 (stereo not shown) [Compound 250] |
| > 7.52 | C[C@H](CNc1cc(-c2ccc(C(=O)NCCC#N)cc2)ncn1)c1ccnc2c1OCC2 [Compound 432] |
| > 7.52 | COc1ccccc1[C@H](C)CNc1cc(-c2ccnc(Nc3nn[nH]n3)c2)ncn1 [Compound 211] |
| > 7.52 | CNC(=O)c1ccnc2c([C@H](C)CNc3cc(-c4cnc(C5CCOCC5)nc4)ncn3)ccc(F)c12 [Compound 832] |
| > 7.52 | C[C@H](CNc1cc(-c2ccc3ncccc3c2)ncn1)c1ccnc2c1OCCO2 [Compound 464] |
| > 7.52 | CCNc1ccc(-c2cc(NC[C@@H](C)c3ccnc4cccnc34)ncn2)cn1 [Compound 514] |
| > 7.52 | CNC(=O)c1ccnc2c([C@H](C)CNc3cc(-c4cnc5c(c4)OCCO5)ncn3)ccc(F)c12 [Compound 936] |
| > 7.52 | CNC(=O)c1ccnc2c([C@H](C)CNc3cc(-c4ccc(C5CCC5)nc4)ncn3)ccc(F)c12 [Compound 850] |
| > 7.52 | CC(=O)Nc1cnc2c([C@H](C)CNc3cc(-c4ccc(C)nc4)ncn3)cccc2c1 [Compound 742] |
| > 7.52 | CNC(=O)c1ccnc2c([C@H](C)CNc3cc(-c4cnc(OC(C)C)c(C)c4)ncn3)cccc12 [Compound 947] |
| > 7.52 | CNC(=O)c1ccnc2c([C@H](C)CNc3cc(-c4ccc(N5CCOCC5)nc4)ncn3)cccc12 [Compound 641] |
| > 7.52 | CNC(=O)c1ccnc2c([C@H](C)CNc3cc(-c4ccc(C)s4)ncn3)cccc12 [Compound 839] |
| > 7.52 | Cc1ccc(-c2cc(NC[C@@H](C)c3cc(C)nc4c3OCC4)ncn2)cn1 [Compound 502] |
| > 7.52 | CNC(=O)c1ccnc2c([C@H](C)CNc3cc(-c4cnc(OC)c(OC)c4)ncn3)ccc(F)c12 [Compound 906] |
| > 7.52 | CNC(=O)c1ccnc2c([C@H](C)CNc3cc(-c4cnc(C)s4)ncn3)ccc(F)c12 [Compound 827] |
| > 7.52 | CNC(=O)c1ccc(C(C)CNc2cc(-c3ccc4c(cnn4CCO)c3C)ncn2)c(OC)c1 (stereo not shown) [Compound 277] |
| > 7.52 | COc1ncc(-c2cc(NC[C@@H](C)c3ccnc4c3OCCO4)ncn2)cc1CO [Compound 550] |
| > 7.52 | CNC(=O)c1ccc([C@H](C)CNc2cc(-c3ccc(F)nc3)ncn2)c(OC)c1 [Compound 328] |
| > 7.52 | CNC(=O)c1ccnc2c([C@H](C)CNc3cc(-c4cc(F)c(OC)c(F)c4)ncn3)cccc12 [Compound 824] |
| > 7.52 | CC(=O)N1CCN(c2ccc(-c3cc(NCC(C)c4ccccc4O)ncn3)cn2)CC1 (stereo not shown) [Compound 136] |
| > 7.52 | CCNc1ccc(-c2cc(NC[C@@H](C)c3ccc(F)c4c(C(=O)NC)ccnc34)ncn2)cn1 [Compound 922] |
| > 7.52 | COc1ccccc1[C@H](C)CNc1cc(-c2cnc3c(cnn3C)c2)ncn1 [Compound 172] |
